# Measured values from ChEMBL document CHEMBL1143017, “Structural assignment of poecillastrins B and C, macrolide lactams from the deep-water Caribbean sponge Poecillastra species” (J Nat Prod, 2007).
# Experiment: Cytotoxicity against human LOX cells
# Format: cell-based
row,Structure (SMILES),IC50
1,COC1/C=C/C=C/CC/C=C/C=C/C(=O)NC(C(O)C(=O)O)C(=O)OC(C(NC(=O)C(C)C(O)CCC(C)C(O)/C(C)=C/C(C)C(O)C(CC(C)C)NC(=O)/C=C/C(C)(C)C(=O)C(C)C(O)C(C)C)C(C)O)C(C)C(O)C/C=C(\C)C(O)C(C)/C=C(\C)C(O)C(C)C(O)CC2CC(C)CC1O2 (configuration not stated) [POECILLASTRIN C],< 1 µg/mL
2,COC1/C=C/C=C/CC/C=C/C=C/C(=O)NC(C(O)C(=O)O)C(=O)OC(C(NC(=O)C(C)C(O)CCC(C)C(O)/C(C)=C/C(C)(C)C(O)C(CC(C)C)NC(=O)/C=C/C(C)(C)C(=O)C(C)C(O)C(C)C)C(C)O)C(C)C(O)C/C=C(\C)C(O)C(C)/C=C(\C)C(O)C(C)C(O)CC2CC(C)CC1O2 (configuration not stated) [POECILLASTRIN B],< 1 µg/mL
